Here are results for two molecules from patent publication US20160010068A1, “FUSION POLYNUCLEOTIDES AND FUSION POLYPEPTIDES ASSOCIATED WITH CANCER AND PARTICULARLY MELANOMA AND THEIR USES AS THERAPEUTIC AND DIAGNOSTIC TARGETS” (priority 2013, published 2016).

The target of data set [1] is T1, PWWP2A-ROS1 fusion (Homo sapiens, UniProt P08922).
T1 construct: exon 1 of PWWP2A is fused with exon 36-43 of ROS1, which contains the tyrosine kinase domain; expressed in transfected cells; host or cells: melan-a cells (immortalized, non-tumorigenic mouse melanocytes), stably transduced with lentivirus (pLenti6.3/TO/V5-Dest)
T1 sequence (P08922 with tags, fused parts or gaps): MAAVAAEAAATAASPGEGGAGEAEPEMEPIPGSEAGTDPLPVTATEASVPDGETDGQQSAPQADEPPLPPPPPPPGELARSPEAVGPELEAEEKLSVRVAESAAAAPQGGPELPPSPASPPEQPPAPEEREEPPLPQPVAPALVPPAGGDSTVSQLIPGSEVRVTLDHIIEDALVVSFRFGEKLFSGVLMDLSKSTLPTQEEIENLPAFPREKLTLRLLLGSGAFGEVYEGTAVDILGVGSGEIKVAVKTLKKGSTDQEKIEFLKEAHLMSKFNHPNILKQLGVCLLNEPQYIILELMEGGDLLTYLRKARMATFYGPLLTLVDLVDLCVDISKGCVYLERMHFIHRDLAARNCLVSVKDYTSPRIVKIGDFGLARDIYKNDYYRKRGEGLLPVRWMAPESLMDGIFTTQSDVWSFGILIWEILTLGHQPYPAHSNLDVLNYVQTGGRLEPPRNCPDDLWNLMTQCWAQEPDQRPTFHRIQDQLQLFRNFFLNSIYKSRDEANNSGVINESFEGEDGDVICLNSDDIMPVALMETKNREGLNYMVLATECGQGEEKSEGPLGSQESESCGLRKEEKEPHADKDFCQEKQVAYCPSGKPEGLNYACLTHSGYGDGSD
In words: Western blot of signaling in melan-a cells expressing the PWWP2A-ROS1 fusion, with crizotinib. Format: cell-based. The note with it: representative of three independent experiments. From the text: FIG. 3 depicts ROS1 fusions. […] Scale bar, […]. Scale bar magnification, 50 mm. […] Scale bar, […]. Scale bar magnification, 50 mm. […] Scale bar, 10 mm. (c) Illustration of the PWWP2A-ROS1 kinase fusion. ROS1 is located on […], and PWWP2A on chromosome 5q33. Owing to genomic rearrangements, exon 1 of PWWP2A is fused with exon 36-43 of ROS1, which contains the tyrosine kinase domain. […] The indicated protein weight markers in kDa are estimated from molecular weight standards.
FIG. 8 depicts full western blots of FIG. 3d. (a) p-ROS1, (b) t-ROS1, (c) p-AKT, (d) t-AKT, (e) p-ERK, (f) t-ERK, (g) p-S6, (h) t-S6, (i) p-SHP2, (j) t-SHP2, (k) Hsp60. All molecular weight standards are indicated in kDa.
For orientation: Immunoblotting shows a protein as a band on a membrane.

The target of data set [2] is T1, PWWP2A-ROS1 fusion. In words: Western blot of phosphorylation in melan-a cells expressing PWWP2A-ROS1 fusion construct. Format: cell-based, mouse. The note with it: FIG. 3d.
For a further data set, the system named is melanoma. The following applies: twice daily; phase I trial; cited from earlier work.

For the molecule `C[C@@H](Oc1cc(-c2cnn(C3CCNCC3)c2)cnc1N)c1c(Cl)ccc(F)c1Cl` [Crizotinib, crizotinib], on PWWP2A-ROS1 fusion [1], the p-AKT result is listed as “inhibited at least partially”, the p-S6 entry was “inhibited at least partially”, the p-SHP2 entry is “inhibited at least partially” and the “phosphorylation of the chimeric PWWP2A-ROS1 fusion protein” value is given as “inhibited at least partially”. Moreover, at PWWP2A-ROS1 fusion [2], the “phosphorylation of ERK” value was “not”; the “phosphorylation of PWWP2A-ROS1, AKT, S6 and SHP2” value is listed as “at least partially inhibited”.

With `CCCS(=O)(=O)Nc1ccc(F)c(C(=O)c2c[nH]c3ncc(-c4ccc(Cl)cc4)cc23)c1F` [vemurafenib], in the data set on melanoma, the maximum tolerated dose is 60 mg.
